The nature of one data set: Pharmacokinetics in rats. Format: in vivo, Sprague-Dawley rats. The following applies: rat. As to the method:
The pharmacokinetic profile of 4AZA2891 was investigated in male Sprague-Dawley rats after intravenous and oral administration of a dose of 2 mg/kg and 20 mg/kg, respectively. The rats were purchased from Charles River Laboratories (Belgium) and 3 rats were included in each dosing route. 4AZA2891 was formulated either as a solution at 1 mg/ml in glucose 5% with 2 equivalents of H3PO4 for the IV dosing or as a solution at 4 mg/ml in water with 2 equivalents of H3PO4 for the oral dosing. Both formulations were heated for 1 hour at 80°C in order to obtain a clear solution. Serial venous blood samples, taken by eye puncture under isoflurane inhalation anesthesia, were collected in heparinized tubes. The plasma fraction was immediately separated by centrifugation 2 min at 13,000 g and stored at -80°C until analysis. Plasma concentrations were measured using liquid chromatography/mass spectrometry/mass spectrometry (LC/MS/MS).
(§1) Every plasma and tissue sample was spiked with internal standard followed by the addition of 4 volumes of methanol. The samples were kept for 30 min on ice prior to centrifugation 10 min at 12,000 RPM in order to remove precipitated proteins. The supernatant was analyzed for the presence of 4AZA2891 using LC/MS/MS (Finnigan LCQ advantage Max (ion trap) mass spectrometer with Surveyor HPLC System (Thermo Finnigan)).
(§2) As standard for the bioanalysis, 4AZA2891 was diluted stepwise. Each dilution was added to blank control plasma or to blank control tissue homogenate additionally spiked with internal standard, giving rise to standard curves from 5 to 5,000 ng/ml. The lower limit of quantification was 5 to 10 ng/ml depending on the tissues.
(§3) Non-compartmental pharmacokinetic analysis was performed on the plasma concentration-time data. PK Solutions 2.0 software (Summit Research Services) was used to calculate the PK parameters.

Data set [1] can be described thus: Pharmacokinetics and tissue distribution in mice. The data set is classed as in vivo. The following applies: CD1 mice, IV bolus 20 mg/kg. The protocol:
Female CD1 mice were purchased from Harlan (Harlan Netherlands BV) and 7–8 weeks old mice were injected intravenously (IV) with 20 mg/kg 4AZA2891 formulated at 2 mg/ml as described above. […] The plasma, obtained after centrifugation of the heparinized blood for 2 min at 13,000 g, and the harvested tissues, after homogenization with Ultra-Turrax, were stored at-80°C until analysis by LC-MS/MS.
as §1, §2, §3

For another data set, the system named is HT-29 xenograft. In words: HT-29 xenograft tumor model. Format: in vivo. The conditions noted are these: for ratio of relative tumor volume of treated mice over control mice (T/C): end of the treatment period. As to the method: Seven-week-old NMRI nude male mice were obtained from Janvier Labs (France) and injected with 10^7 HT-29 cells intradermally on the flank. When tumors reached approximately 100 mm^3, mice were distributed into three groups of four to six mice to give the same average tumor size per group and randomly assigned a treatment condition. Mice were injected IV with 4AZA2891 at 15 mg/kg following a Q1D5x2W administration schedule or at 30 mg/kg following a Q2D3x2W administration schedule or with the vehicle (Q1D5x2W). 4AZA2891 was formulated before each injection at 3 mg/ml in 5% glucose with 2 equivalent H3PO4 and warmed at 80°C for 1 h to obtain a clear solution. Tumor volume was measured as (width^2 × length)/2 in mm^3 and weight gain/loss and survival were monitored. T/C ratio was calculated as the ratio of the relative tumor volume average. The health status and behaviour of the animals were assessed daily for well-being. At the end of the experiment (day 35 after treatment intiation)) or in the events of signs of distress, cachexia or excessive tumor growth, the mice were humanely sacrificed by CO2 inhalation followed by cervical dislocation.

A further data set in a line: Myelotoxicity in mice. The conditions noted are these: Balb/c mice. The data set is classed as in vivo. The protocol: Female Balb/c mice from Janvier Labs, 8–10 weeks old, were injected IV daily for 6 days with 4AZA2891 at 15 mg/kg or with the vehicle (4 mice per treatment group). The compound was formulated at 0.75 mg/ml in glucose 5% with 2 equivalents H3PO4 as described above. Mice were daily weighted and assessed clinically. On day 7, mice were exsanguinated by retro-orbital bleeding under anesthesia with avertin (given intraperitoneally); blood was collected in EDTA tubes and was subjected to an automated blood count (Sysmex XE 2100 Hematology Analyser, Sysmex Europe GmbH). Femurs were fixed in formaldehyde, decalcified, and paraffin embedded. Sections (4.5 μm) were stained with hematoxylin/eosin (H&E) for histopathological analysis at Novaxia (France).

A further data set relates to EKVX. In words: NCI60 5-dose screen, EKVX. Format: cell-based. The conditions noted are these: Homo sapiens, non-small cell lung cancer, Fig 1D, read-out: Log10 GI50 (EKVX) (converted). The protocol: (§4) The screening methodology used in the NCI60 Cell 5-Doses screen is described in detail at https://dtp.cancer.gov/discovery_development/nci-60/methodology.htm. Briefly, cells are seeded in 96 well plates at an appropriate density and incubated for 1 day. After 1 day, some of the plates are processed to determine a time zero density. To the remaining plates, compounds are added over a 5-log M concentration range (1 log dilutions from 10^-4M to 10^-8M). Plates are incubated for two additional days, then fixed and stained with sulforhodamine B. Growth inhibition is calculated relative to cells without drug treatment and the time zero control. The GI50 is the concentration of a compound that causes 50% growth inhibition, relative to the no drug control.

The test system of another data set is HOP-92. In words: NCI60 5-dose screen, HOP-92. Format: cell-based. The conditions noted are these: Homo sapiens, non-small cell lung cancer, Fig 1D, read-out: Log10 GI50 (HOP-92) (converted). The protocol:
as §4

The test system of a further data set is OVCAR-4. In words: NCI60 5-dose screen, OVCAR-4. The data set is classed as cell-based. The following applies: Homo sapiens, ovarian cancer, Fig 1D, read-out: Log10 GI50 (OVCAR-4) (converted). The protocol:
as §4

The next data set relates to RXF 393. In words: NCI60 5-dose screen, RXF 393. The data set is classed as cell-based. The following applies: Homo sapiens, renal cancer, Fig 1D, read-out: Log10 GI50 (RXF 393) (converted). As to the method:
as §4

The next data set relates to T-47D. In words: NCI60 5-dose screen, T-47D. Format: cell-based. The following applies: Homo sapiens, T47D; breast cancer; Fig 1D; read-out: Log10 GI50 (T-47D) (converted). As to the method: as §4
The mark [2] stands for this setting: 15 mg/kg IV once daily for 6 days, blood on day 7.

Where two headings read alike, the source gives them in different places.

A word on the clearance: it is a measure of how efficiently the substance is removed, as volume per time. Usually GI50 stands for the concentration giving 50% growth inhibition. Consider `Cc1cc(C)cc(Nc2ccc([N+](=O)[O-])c(NCCN3CCOCC3)n2)c1` [Compound 4AZA2891, 6-(3,5-dimethylanilino)-2-(2-morpholinoethylamino)-3-nitropyridine], for which the AUC(0-t) is 253 ng·h/mL in “Pharmacokinetics in rats” (male, Sprague-Dawley, plasma, IV 2 mg/kg, read-out: AUClast in plasma) and 1290 ng·h/mL in [1] (female, mouse, plasma, read-out: AUClast in plasma). Also, the half-life in the data set “Pharmacokinetics in rats” (male, Sprague-Dawley, plasma, IV 2 mg/kg, read-out: elimination half-life (converted)) is 48 min; in [1] (female, mouse, different tissues (homogenates), tissues, read-out: elimination half-lives in the different tissues), 18 to 48 min; in [1] (female, mouse, plasma, read-out: elimination half-life (converted)), 42 min. The clearance in “Pharmacokinetics in rats” (male, Sprague-Dawley, plasma, IV 2 mg/kg, read-out: systemic clearance (converted)) is 132 mL/min/kg; in [1] (female, mouse, plasma, read-out: systemic clearance (converted)), 257 mL/min/kg. For the same compound, the Vd in “Pharmacokinetics in rats” (male, Sprague-Dawley, plasma, IV 2 mg/kg, read-out: volume of distribution at steady state) was 7.4 L/kg; in data set [1] (female, mouse, plasma, read-out: volume of distribution at steady state) it was 5.7 L/kg. Moreover, the “time detected in the plasma” value in the data set “Pharmacokinetics in rats” (IV 2 mg/kg, lower limit of quantification 10 ng/ml) is listed as “up to 3 hours”. For the same compound, the oral bioavailability entry in “Pharmacokinetics in rats” (oral 20 mg/kg) was “not orally bioavailable”. For the same compound, the “plasma levels after oral dose” value in the data set “Pharmacokinetics in rats” (oral 20 mg/kg, all time points) is “below the limit of quantification”. For the same compound, the tissue distribution entry in data set [1] is given as “distributes readily to all tissues analyzed including the brain”. The Kp turned out to be 2.7 in [1] (female, mouse, brain, read-out: ratio of brain AUC over plasma AUC) and 2.6 in data set [1] (female, mouse, kidney, read-out: ratio of kidney AUC over plasma AUC). For the same compound, the “ratio of relative tumor volume of treated mice over control mice (T/C)” value in the data set on HT-29 xenograft (15 mg/kg IV Q1D5x2W) was 42%; with HT-29 xenograft (30 mg/kg IV Q2D3x2W), 34%. The tumor growth inhibition result in the data set with HT-29 xenograft (both dosing regimen (15 mg/kg Q1D5x2W, 30 mg/kg Q2D3x2W), IV) is on record as “significant tumor growth inhibition”. Further, in the data set with HT-29 xenograft (both dosing regimens, IV, tumor bearing mice), the “tolerability (body weight evolution)” value is “well tolerated”. The same compound displayed a Hb in the data set “Myelotoxicity in mice” (setting [2]) of 14.7 ± 2.2 g/dL. Moreover, the Platelets in “Myelotoxicity in mice” (setting [2]) was 234 ± 84 10^9/l. Further, the RBC in the data set “Myelotoxicity in mice” (setting [2]) is given as 9.4 ± 1.6 10^12/l. In addition, in the data set “Myelotoxicity in mice” (setting [2]), the WBC was 5.2 ± 2.6 10^9/l. The “histologic examination of the bone marrow” value in “Myelotoxicity in mice” (15 mg/kg/d IV during 6 days) is “normal”. Further, the “tolerability (body weight change, anemia, leukocytopenia, thrombocytopenia)” value in “Myelotoxicity in mice” (15 mg/kg/d IV during 6 days) is reported as “well tolerated”. The GI50 was 44.7 nM in the data set with EKVX, less than 10 nM in the data set on HOP-92, less than 10 nM in the data set with OVCAR-4 and 38.9 nM in the data set with RXF 393.
Turning to `Cc1ccnc(Nc2ccc([N+](=O)[O-])c(NCCN3CCOCC3)n2)c1` [Compound 4AZA2996, N^6-(4-methylpyridin-2-yl)-N^2-(2-morpholinoethyl)-3-nitropyridine-2,6-diamine], the GI50 in the data set on T-47D was 26300 nM.
